This note sets out measurements from patent US20050065187A1, “Novel antimicrobial aryloxazolidinone compounds” (priority 2003, published 2005).

Values after ≈ are worked out from the molar mass of the structure shown.

Common to all, as to assay: Antibacterial assay (Test A), microtitration MIC
The test system of one assay is SAUR 9213. It counts as cell-based, S. aureus. The note with it: Staphylococcus aureus; Minimum Inhibitory Concentration, strain SAUR 9213; read-out: SAUR 9213 MIC. On the procedure:
(§1) Test A—Antibacterial Assays
(§2) The compounds of the present invention were tested against an assortment of Gram-negative and Gram-positive organisms using standard microtitration techniques (Cohen et. al., Antimicrob., 1985;28:766; Heifetz, et. al., Antimicrob., 1974;6:124).

The subject of the next assay is SPNE 9912. The class given is cell-based, S. pneumoniae. Conditions: Streptococcus pneumoniae; Minimum Inhibitory Concentration, strain SPNE 9912; read-out: SPNE 9912 MIC. On the procedure: as §1, §2
In another assay the test system is HINF 30063. The class given is cell-based, H. influenza. The note with it: Minimum Inhibitory Concentration, strain HINF 30063. As to the method:
as §1, §2

The test system of a further assay is MC 30603. It counts as cell-based, M. catarrhalis. Conditions: Moraxella catarrhalis; Minimum Inhibitory Concentration, strain MC 30603; read-out: MC 30603 MIC. As to the method: as §1, §2

With `O=C1O[C@@H](CNC(=S)C(F)F)CN1c1ccc(C2CCC(O)CC2)c(F)c1` (some centres unmarked) [Example 19, 2,2-Difluoro-N-{3-[3-fluoro-4-(4-hydroxy-cyclohexyl)-phenyl]-2-oxo-oxazolidin-5-ylmethyl}-thioacetamide], the MIC turned out to be 2 µg/mL (≈ 4.97 µM) in the assay on SAUR 9213, 0.5 µg/mL (≈ 1.24 µM) in the assay on SPNE 9912, 8 µg/mL (≈ 19.9 µM) against HINF 30063 and 2 µg/mL (≈ 4.97 µM) in the assay on MC 30603.
In the case of `CC(=O)NC[C@H]1CN(c2ccc(C3CCC(=O)CC3)c(F)c2)C(=O)O1` [Example 20, N-{3-[3-Fluoro-4-(4-oxo-cyclohexyl)-phenyl]-2-oxo-oxazolidin-5-ylmethyl}-acetamide], the MIC in the assay with SAUR 9213 was 2 µg/mL (≈ 5.74 µM); with SPNE 9912, 0.5 µg/mL (≈ 1.44 µM); against HINF 30063, 16 µg/mL (≈ 45.9 µM); in the assay with MC 30603, 8 µg/mL (≈ 23 µM).
The corresponding values for `CC(=O)NC[C@H]1CN(c2ccc(C3CCC(=NO)CC3)c(F)c2)C(=O)O1` (some centres unmarked) [Example 21, N-{3-[3-Fluoro-4-(4-hydroxyimino-cyclohexyl)-phenyl]-2-oxo-oxazolidin-5-ylmethyl}-acetamide] are 1 µg/mL (≈ 2.75 µM), 0.5 µg/mL (≈ 1.38 µM), 16 µg/mL (≈ 44 µM) and 8 µg/mL (≈ 22 µM).
On the same counts, the results for `CON=C1CCC(c2ccc(N3C[C@H](CNC(C)=O)OC3=O)cc2F)CC1` (some centres unmarked) [Example 22, N-{3-[3-Fluoro-4-(4-methoxyimino-cyclohexyl)-phenyl]-2-oxo-oxazolidin-5-ylmethyl}-acetamide] are 2 µg/mL (≈ 5.3 µM), 1 µg/mL (≈ 2.65 µM), 32 µg/mL (≈ 84.8 µM) and 1 µg/mL (≈ 2.65 µM).
For `NC(=O)[C@H]1CN(c2ccc(C3CCC(=O)CC3)c(F)c2)C(=O)O1` [Example 24, 3-[3-Fluoro-4-(4-oxo-cyclohexyl)-phenyl]-2-oxo-oxazolidine-5-carboxylic acid amide], the MIC in the assay with SAUR 9213 amounted to 1 µg/mL (≈ 3.12 µM); with SPNE 9912, 2 µg/mL (≈ 6.24 µM); against HINF 30063, 32 µg/mL (≈ 99.9 µM); in the assay with MC 30603, 32 µg/mL (≈ 99.9 µM).
